Laboratory results as given in ChEMBL document CHEMBL4364294 (J Med Chem, 2019).
Converted amounts (≈) assume the structure as drawn.

Experiments:
[1] = Intrinsic clearance in human liver microsomes; type: ADME, Microsome; settings: read-out: CLH
[2] = Aqueous solubility of the compound at pH 1; type: physicochemical
[3] = Aqueous solubility of the compound at pH 6.5; type: physicochemical
[4] = Aqueous solubility of the compound at pH 7.4; type: physicochemical

Row | Structure (SMILES) | predicted hepatic clearance [1] | solubility [2] | solubility [3] | solubility [4]
1 | O=C1CCC(C(O)CC2c3c(F)cccc3-c3cncn32)CC1 (stereo unspecified) | 20.3 mL/min/kg |  |  | 
2 | O[C@H](C[C@H]1c2c(F)cccc2-c2cncn21)[C@H]1CC[C@@H](O)CC1 | 18.5 mL/min/kg |  |  | 
3 | OC(CC1c2ccccc2-c2cncn21)C1CCC(F)(F)CC1 (stereo unspecified) | 14.6 mL/min/kg |  |  | 

The next lines start with the values.

Row | predicted hepatic clearance [1] | solubility [2] | solubility [3] | solubility [4] | Structure (SMILES)
4 | 4.06 mL/min/kg | 353 µM (≈ 112 µg/mL) | 329 µM (≈ 104 µg/mL) | 316 µM (≈ 100 µg/mL) | OC1CCC(C(O)CC2c3c(F)cccc3-c3cncn32)CC1 (stereo unspecified)
5 |  | 363 µM (≈ 146 µg/mL) | 22 µM (≈ 8.83 µg/mL) | 25 µM (≈ 10 µg/mL) | O=C(N[C@H]1CC[C@H](C(O)CC2c3ccccc3-c3cncn32)CC1)c1ccccc1 (stereo partly specified)
6 | 18.9 mL/min/kg |  |  |  | OC(CC1c2c(F)cccc2-c2cncn21)C1CCCCC1 (stereo unspecified)
